This is an account of results in patent publication US20080293818A1, “Regulator of Physiological Function of Ghrelin and Use Thereof” (priority 2004, published 2008).

Marks after values point to notes of the source that are not given here.

For assay [1], the system named is acyl-modified and total ghrelin in the stomach. As to the kind of experiment: Time course of acyl-modified ghrelin production after glyceryl trioctanoate ingestion. It counts as in vivo, mouse. On the procedure: To examine time-dependent changes in the production of n-octanoyl ghrelin after the ingestion of a glyceryl trioctanoate, mice were fed with glyceryl trioctanoate-containing chow (5%, w/w) after a 12-hour fasting period. The concentrations of acyl-modified and total ghrelins in the stomach were measured at the indicated times.
A represents acyl-modified ghrelin content measured by ghrelin N-RIA. B represents total ghrelin content measured by ghrelin C-RIA. After 12-hour fasting, glyceryl trioctanoate (5% w/w)-containing chow was given to mice beginning at the time (0 hour) indicated by the arrow. Stomach samples were isolated from control mice fed standard laboratory chow (closed circles) and mice fed glyceryl trioctanoate (open circles) at the indicated times. Each point represents mean ±S.D. (n=8). Asterisks indicate statistical significance. *, p<0.05; **, p<0.01 and ***, p<0.001 vs. control.

Assay [2] concerns des-acyl and acyl-modified ghrelin peptides in the stomach. Nature of the assay: Molecular forms of stomach ghrelin peptide after ingestion (HPLC fractionation, C-RIA). It counts as in vivo, mouse. On the procedure: (§1) Male C57BL/6J mice weighing 20-25 g (10-12 week old) were maintained under controlled temperature (21-23° C.) and light conditions (light on 0700-1900) with ad libitum access to food and water. Medium-chain fatty acids (MCFAs), i.e., n-hexanoic, n-octanoic, and n-lauric acids (Sigma-Aldrich Japan Co., Ltd., Tokyo), were dissolved in water at 5 mg/ml. n-Palmitic acid, a common long-chain fatty acid (LCFA) (Sigma-Aldrich Japan Co., Ltd., Tokyo), was mixed into standard laboratory chow (CLEA Rodent Diet CE-2, CLEA Japan, Osaka) at a concentration of 1% (w/w), to equilibrate the total intake amount of this lipid to the other medium-chain fatty acids contained in the food. Medium- and long-chain triglycerides (MCTs and LCTs), i.e., glyceryl trihexanoate, trioctanoate, tridecanoate and tripalmitates (Wako Pure Chemical, Osaka, Japan), were mixed with standard laboratory chow at a concentration of 5% (w/w). Whole stomach tissues from treated mice were collected at the indicated times (0-14 days) after ingesting the free fatty acid- or triacylglyceride-containing food. Fresh tissue samples from these mice were diced and boiled for 5 minutes in a 10-fold volume of water. The tissue-containing solution was then adjusted to 1M acetic acid after cooling and then homogenized with a Polytron mixer. The supernatant, obtained after centrifugation at 15,000 rpm for 15 minutes, was then lyophilized. The lyophilized material was dissolved in RIA buffer and subjected to ghrelin C- and N-RIA. To elucidate the forms of ghrelin peptides modified by different acyl groups, extracted stomach peptides were collected using a Sep-Pak Plus C18 cartridge (Waters, Milford, Mass.) and subjected to C18 RP-HPLC (Symmetry 300, 3.9×150 mm, Waters) with a linear gradient from 10 to 60% CH3CN/0.1% TFA at a flow rate of 1.0 ml/minute for 40 minutes. Five hundred micro-litter fractions were collected. Ghrelin peptide content in each fraction was measured by ghrelin C- and N-RIA as described above. Degradation of ghrelin was not observed during the extraction.
To clarify what molecular forms of ghrelin peptide are present after the ingestion of triacylglycerol (triacylglycerin), peptide extracts from stomachs of mouse fed chow containing glyceryl trihexanoate (C6:0-MCT), glyceryl trioctanoate (C8:0-MCT), glyceryl tridecanoate (C10:0-MCT), and standard laboratory chow (Control) were fractionated by HPLC, and measured for ghrelin immunoreactivity by C-RIA. […] Based on the observed retention times of synthetic acyl-modified ghrelin peptides, peaks a, d, h, and k corresponded to des-acyl ghrelin, peaks b, f, i, and 1 corresponded to n-octanoyl (C8:0) ghrelin, and peaks c, g, j, and m corresponded to n-decenoyl (10:1) ghrelin.
Male C57BL/6J mice were fed chow mixed with 5% (w/w) glyceryl trihexanoate (C6:0-MCT), glyceryl trioctanoate (C8:0-MCT), or glyceryl tri-decanoate (C10:0-MCT) for 14 days. The concentrations of des-acyl ghrelin, n-hexanoyl ghrelin (C6:0-ghrelin), n-octanoyl ghrelin (C8:0-ghrelin), n-decenoyl ghrelin (C10:1-ghrelin), and n-decanoyl ghrelin (C10:0-ghrelin) from stomach samples (from 0.2 mg wet weight) were measured by ghrelin C-RIA after HPLC fractionation.

In assay [3] the test system is acyl-modified and total ghrelin in the stomach. As to the kind of experiment: Stomach ghrelin content after medium- to long-chain triacylglycerol ingestion (N-RIA / C-RIA). It counts as in vivo, mouse. Particulars: mice, 5% (w/w) in chow, two weeks, N-RIA. On the procedure:
(§2) RIAs specific for ghrelin were performed as previously described [D2]. Two polyclonal antibodies were raised in rabbits against the N-terminal (Gly^1-Lys^11 with O-n-octanoylation at Ser^3) and C-terminal (Gln^13-Arg^28) fragments of rat ghrelin. RIA incubation mixtures were composed of 100 μl of either standard ghrelin or an unknown sample, with 200 μl of antiserum diluted in RIA buffer (50 mM sodium phosphate buffer (pH 7.4), 0.5% BSA, 0.5% Triton-X100, 80 mM sodium chloride (NaCl), 25 mM disodium ethylenediamine-tetraacetate (EDTA 2-Na) and 0.05% sodium azide (NaN3)) containing 0.5% normal rabbit serum. Anti-rat ghrelin [D1-D11] and anti-rat ghrelin [D13-D28] antisera were used at final dilutions of 1/3,000,000 and 1/20,000, respectively. After a 12-hour incubation at 4° C., 100 μl of ^125I-labeled ligand (20,000 cpm) was added for an additional 36-hour incubation. Then, 100 μl of anti-rabbit goat antibody was added. After incubation for 24 hours at 4° C., free and bound tracers were separated by centrifugation at 3,000 rpm for 30 min. Pellet radioactivity was quantified in a gamma counter (ARC-600, Aloka, Tokyo). All assays were performed in duplicate at 4° C.
as §1
Orally ingested triacylglycerols are intraluminally hydrolyzed and absorbed through the gastro-intestinal mucosa as free fatty acids or monoglycerides. Thus, ingested triacylglycerols may serve as a source of free fatty acids [D26]. To examine if ingested triacylglycerols are used for acyl-modification of ghrelin, mice were fed chow mixed with 5% (w/w) glyceryl trihexanoate (C6), trioctanoate (C8), tridecanoate (C10), and tripalmintate (C16). After two weeks, gastric peptides were extracted. Ghrelin concentration in the stomach of these mice and in that from mice fed standard laboratory chow (Control) (n=8) are shown. The content of acyl-modified and total ghrelins was measured by N- and C-RIA. […]

Assay [4] concerns ghrelin mRNA. Nature of the assay: Northern blot of stomach ghrelin mRNA after glyceryl trioctanoate ingestion. Type of assay: in vivo, mouse. As to conditions: after 4 days of ingestion. An excerpt:
Total RNAs were extracted from the stomachs of male C57BL/6J mice (12 week old) by acid guanidium thiocyanate-phenol chloroform extraction [D24] using TRIzol reagent (Invitrogen, Carlsbad Calif., USA). Two μg of total RNA was electrophoresed through a 1% agarose gel containing formaldehyde, and then transferred to a Zeta-Probe blotting membrane (Bio-Rad Laboratories, Hercules, Calif.). Membranes were hybridized with a ^32P-labeled rat ghrelin cDNA probe in hybridization buffer containing 50% formamide, 5×SSPE, 5×Denhardt's solution, 1% sodium dodecyl sulfate (SDS), and 100 μg/ml denatured salmon sperm. After an overnight hybridization at 37° C., membranes were washed and exposed to BioMax-MS film (Eastman Kodak, Rochester, N.Y.) for 12 hours at −80° C. Ghrelin mRNA levels were quantified using a Bioimaging analyzer BAS 2000 (Fujix, Tokyo, Japan).
To examine if the ingestion of MCTs affects the expression of ghrelin mRNA, mouse stomach RNA was quantitated by Northern blot analysis after 4 days of glyceryl trioctanoate ingestion.
Each lane contained 2 μg of total RNA. The lower panel indicates 28S and 18S ribosomal RNAs internal controls.

Assay [5] concerns n-heptanoyl ghrelin in the stomach. As to the kind of experiment: Molecular forms of stomach ghrelin after glyceryl triheptanoate ingestion (HPLC, C-RIA and N-RIA). Type of assay: in vivo, mouse. Particulars: mice, HPLC, C-RIA / N-RIA. Here is the method:
as §1
Male C57BL/6J mice weighing 20-25 g (10-12 week old) were maintained under controlled temperature (21-23° C.) and light conditions (light on 0700-1900) with ad libitum access to food and water. Glyceryl triheptanoate (Fluka Chemie GmbH, Buchs, Switzerland) was mixed with standard laboratory chow at a concentration of 5% (w/w). Four days after mice were fed glyceryl triheptanoate-containing food, stomachs (total 1,000 mg) were recovered from mice (n=7). The total consumption of glyceryl triheptanoate-containing food was approximately 13.5 g/mouse, amounting to 675 mg total glyceryl triheptanoate ingested by each mouse. Stomachs were minced and boiled for 5 minutes in 5× volumes of water to inactivate intrinsic proteases. […]

Assay [6] has as its system anti-rat ghrelin [D1-D11] antiserum. As to the kind of experiment: Cross-reactivity of ghrelin N-RIA. It counts as binding, rabbit. As to conditions: for cross-reactivity of N-RIA: relative to n-octanoyl ghrelin. On the procedure: as §2
The cross-reactivity of N-RIA to n-decanoyl ghrelin and that to n-hexanoyl ghrelin are 20% and 0.3%, respectively. Anti-rat ghrelin [D13-D28] antiserum equally recognized both des-acyl and all acylated forms of ghrelin peptide. In the following sections, the RIA system using the antiserum against the N-terminal fragment of rat ghrelin [D1-D11] is termed N-RIA, while the RIA system using antiserum against the C-terminal fragment [D13-D28] is termed C-RIA.

The mark [7] stands for this setting: mice, 5% (w/w) in chow, 14 days, from 0.2 mg wet weight, C-RIA after HPLC, mean ± S.D.

On to `CCCCCCCC(=O)OCC(COC(=O)CCCCCCC)OC(=O)CCCCCCC` [glyceryl trioctanoate], for which, in assay [1] (14 days after ingestion, N-RIA), the “stomach concentration of acyl-modified ghrelin vs normal chow” value is “remained significantly higher”. In assay [1] (mice, 5% w/w chow after 12-hour fasting, N-RIA), the “onset of increase of acyl-modified ghrelin content in the stomach” value was “increased three hours after the ingestion”. Moreover, the “time to maximal levels of n-octanoyl ghrelin in the stomach after starting ingestion” value in assay [1] (mice, 5% w/w chow continuously supplied) was found to be 24 h. For the same compound, in assay [1] (time course, C-RIA), the “stomach content of total ghrelin” value was “no significant changes”. Further, in assay [2] (setting [7]), the “C6:0-ghrelin (n-hexanoyl ghrelin) concentration in the stomach” value is listed as 12.4 ± 4.9, the “C8:0-ghrelin (n-octanoyl ghrelin) concentration in the stomach” value is listed as 774.0 ± 89.1^c), the “C10:0-ghrelin (n-decanoyl ghrelin) concentration in the stomach” value amounted to 8.1 ± 3.1 and the “Des-acyl ghrelin concentration in the stomach” value is on record as 236.6 ± 21.1. The “C10:1-ghrelin (n-decenoyl ghrelin) concentration in the stomach” value in assay [2] (mice, 5% (w/w) in chow, 14 days, from 0.2 mg wet weight, C-RIA after HPLC, mean ± S.D., fraction holds unidentified ghrelin molecules too) is on record as 51.5 ± 13.2^a). Moreover, the “stomach ghrelin modified by the acyl group corresponding to the ingested lipid” value in assay [2] (mice, HPLC peak, C-RIA) is listed as “stimulated the production of n-octanoyl ghrelin”. Moreover, the “molar ratio of n-octanoyl/total ghrelin” value in assay [2] (stomach of treated mice) is given as “over 60%”. Further, the “production of acyl-modified ghrelin in stomach tissue” value in assay [3] is “stimulated production”. For the same compound, the “expression level of gastric ghrelin mRNA” value in assay [4] was “did not change”.

In the case of `CCCCCCC(=O)O` [n-heptanoic acid], the “appearance of peak b / d (n-heptanoyl ghrelin) immunoreactivity in stomach extracts” value in assay [5] was “also detected”.

Take “des-acyl ghrelin: ghrelin peptide in which the position-3 amino acid is not acylated (GSSFLSPEHQRVQQRKESKKPPAKLQPR; Ghrelin-28 non-acylated; UniProt Q9UBU3 24-51, looked up)”: the “recognition by anti-rat ghrelin [D1-D11] antiserum” value in assay [6] is recorded as “did not recognize”.

Take n-decanoyl ghrelin: in assay [6], the “cross-reactivity of N-RIA” value amounted to 20%.

As to n-hexanoyl ghrelin, the “cross-reactivity of N-RIA” value in assay [6] amounted to 0.3%.
